Test [1] relates to poly A-poly U (RNA, polymer) A/U. The test is described as follows: fluorescent indicator displacement (DAPI). The note with it: Na+ (50 mM sodium cacodylate); pH 7.4; DAPI displaced; polynucleotide 1-2 × 10^-5 M.
Test [2] shares this test system. Description: fluorescent indicator displacement (EB). The note with it: Na+ (50 mM sodium cacodylate); pH 7.4; ethidium bromide displaced; polynucleotide 3-4 × 10^-5 M.
Test [3] shares this test system. Description: UV melting at 260 nm. The note with it: Na+ (50 mM sodium cacodylate); pH 7.4; r = [ligand]/[polynucleotide] = 0.05; caption says ctDNA, text b32 says poly A-poly U; per base.

On to `NCCN(CCN)CCCNCCN1CCNCc2cccc(n2)CNCC1`, for which the IC50 in test [1] was 0.85 [ligand]/[polynucleotide] ratio (dimensionless); in test [2], 0.63 [ligand]/[polynucleotide] ratio (dimensionless). In addition, the shift in melting temperature (ΔTm) in test [3] came out at 21.3 °C.

`c1cc2nc(c1)CNCCN(CCCNCCN1CCNCc3cccc(n3)CNCC1)CCNC2`: the IC50 is 0.45 [ligand]/[polynucleotide] ratio (dimensionless) in test [1] and 0.86 [ligand]/[polynucleotide] ratio (dimensionless) in test [2]. In addition, the ΔTm in test [3] is 17.1 °C.

These data come from article PMC8272215 (2021).
